From PMC10818329, “An Ultra-Performance Liquid Chromatography–Tandem Mass Spectrometry (UPLC–MS/MS) Method for Qualifying DAPB in Rat Plasma and Application to Pharmacokinetic Studies” (Molecules, 2024)

Tests used:
[1] = Pharmacokinetic study of DAPB in rats (plasma, UPLC–MS/MS); assay type: in vivo, Sprague–Dawley (SD) rats
Procedure: Sprague–Dawley (SD) rats (180–200 g) were purchased from the Experimental Animal Center of Xi’an Jiaotong University (permit number SCXK 2017–003) and housed under controlled conditions (25 °C, 50 ± 5% humidity, and 12 h dark–light cycles). The animal protocol was approved by the Animal Ethics Committee of Xi’an Medical College. […] For the intravenous administration group, DAPB prepared in saline containing 5% DMSO was injected in the tail vein at a dose of 6 mg/kg. For the oral administration group, rats were given DAPB dissolved in 10% (2-hydroxypropyl)-β-cyclodextrin in water (10% HP-β-CD solution) containing 20% PEG200 and 20% propylene glycol at a dose of 30 mg/kg orally. Blood samples were collected in heparinized tubes pretreated with NaF via the ophthalmic venous plexus before and at 0.083, 0.17, 0.25, 0.50, 1.00, 2.00, 4.00, and 8.00 h after dosing. After centrifugation, the supernatant plasma was obtained and stored at −80 °C for further treatment. For the preparation of the plasma samples, 10 μL of the IS working solution (1 μg/mL), 1 μL of NaF (5 mg/mL), and 290 μL of acetonitrile were added to 100 μL of the plasma samples. Subsequently, the mixed plasma samples were centrifuged twice at 16,000× g for 5 min at 4 °C after vortexing for 30 s. For analysis, 10 μL of the supernatant was injected into the UPLC–MS/MS apparatus.

[2] = Stability of DAPB in rat plasma (NaF added); assay type: in vitro ADME; settings: for Stability RE (%): n = 6
Procedure: Esterase widely exists in the blood, serum, and plasma of organisms. Therefore, DAPB may be unstable and easily hydrolyzed by plasma esterases owning to the ester group. In the method-development process, the stability of DAPB in whole blood and plasma was tested in detail. Low temperature is an important factor for maintaining the stability of the analyte; therefore, in our study, an ice-water bath was used to provide cooling conditions. Sodium fluoride (NaF), a typical esterase inhibitor, was pre-added in the collected blood samples to prevent the hydrolysis of DAPB. In the plasma with NaF added, DAPB was stable after being placed at room temperature for 4 h, −80 °C for 30 days, and then subject to three freeze/thaw cycles. In addition, the post-preparative plasma sample stored in an autosampler for 24 h remained stable.
The stability of DAPB in rat plasma was assessed by using QC samples at three concentrations in six replicates following three freeze/thaw cycles, short-term storage (room temperature for […]), long-term storage (−80 °C for 30 consecutive days), and autosampler rack storage (4 °C for 24 h). In freeze/thaw cycle tests, the QC samples were frozen and stored at −80 °C and then thawed at room temperature; this was repeated three times. The values of stability were calculated by comparing the concentrations of the QC samples following each storage period with the concentrations of the freshly prepared QC samples in the same analytical run.

SHR rats = tested on: SHR rats; design: method as in PMID 37446639; settings: cited from earlier work
[3] = Sprague-Dawley, rat plasma, intravenous administration at 6 mg/kg, mean ± SD (n = 6)
[4] = Sprague-Dawley, rat plasma, oral administration at 30 mg/kg, mean ± SD (n = 6)
[5] = rat plasma, oral administration at 30 mg/kg, mean ± SD (n = 6)

## C[C@@H](NC(=O)C(O)Cc1ccc(O)c(O)c1)C(=O)N1CCC[C@H]1C(=O)OC1CC2CCC1(C)C2(C)C (stereo partly drawn) [DAPB, (2R)-3-(3,4-dihydroxyphenyl)-2-hydroxypropionyl-L-alanyl-L-proline bornyl ester]
[1]; Sprague-Dawley, plasma, rat, oral 30 mg/kg vs intravenous 6 mg/kg
  bioavailability: 78.2%
[1]; [3]
  AUC(0-inf): 13.8 ± 2.1 ng·h/mL
  AUC(0-t): 11.8 ± 1.66 ng·h/mL
  half-life: 11.4 ± 0.6 min
[1]; Sprague-Dawley, rat plasma, intravenous administration at 6 mg/kg, mean ± SD (n = 6), read-out: Vss
  Vd: 910 ± 24.4 L/kg
[1]; [4]
  AUC(0-inf): 53.9 ± 8.34 ng·h/mL
  AUC(0-t): 49.6 ± 7.92 ng·h/mL
  Cmax: 33.2 ± 10.9 ng/mL
  Tmax: 14.7 min
  half-life: 97.8 ± 21.6 min
[1]; [5]
  CL: 89,992.36 ± 10,292.61 mL/h/kg
  Vss: 264.73 ± 65.86 L/kg
[2]; post-preparative rat plasma sample, autosampler rack (4 °C) for 24 h, spiked conc. 5 ng/mL
  Stability RE (%): −11.6%
[2]; post-preparative rat plasma sample, autosampler rack (4 °C) for 24 h, spiked conc. 500 ng/mL
  Stability RE (%): −7.4%
[2]; post-preparative rat plasma sample, autosampler rack (4 °C) for 24 h, spiked conc. 1000 ng/mL
  Stability RE (%): −3.4%
[2]; rat plasma, room temperature for 2 h, spiked conc. 5 ng/mL
  Stability RE (%): −10.2%
[2]; rat plasma, room temperature for 2 h, spiked conc. 500 ng/mL
  Stability RE (%): −7.5%
[2]; rat plasma, room temperature for 2 h, spiked conc. 1000 ng/mL
  Stability RE (%): 1.2%
[2]; rat plasma, three freeze/thaw cycles, spiked conc. 5 ng/mL
  Stability RE (%): −6.4%
[2]; rat plasma, three freeze/thaw cycles, spiked conc. 500 ng/mL
  Stability RE (%): 2.6%
[2]; rat plasma, three freeze/thaw cycles, spiked conc. 1000 ng/mL
  Stability RE (%): −2.0%
[2]; rat plasma, −80 °C for 30 days, spiked conc. 5 ng/mL
  Stability RE (%): 5.3%
[2]; rat plasma, −80 °C for 30 days, spiked conc. 500 ng/mL
  Stability RE (%): −6.2%
[2]; rat plasma, −80 °C for 30 days, spiked conc. 1000 ng/mL
  Stability RE (%): −4.6%
[2]; room temperature for 4 h, −80 °C for 30 days, three freeze/thaw cycles
  Stability in plasma with NaF added (in words): stable
SHR rats
  Decrease of diastolic blood pressure (DBP): 35 mmHg
  Decrease of systolic blood pressure (SBP): 50 mmHg
